Measured values taken from the supplement of paper PMC13380429.

What was measured:
Conditions in all cases: 72 h
HepG2 [1] = experiment: relative viability EC50 (midpoint between 100% and the lowest measured viability); higher = less toxic
Vero E6 [2] = experiment: as above
U2OS [3] = experiment: as above
HepG2 [4] = experiment: drug sensitivity score (DSS) for viability; higher = more toxic; extreme values may be limits of the assay
Vero E6 [5] = experiment: as above
U2OS [6] = experiment: as above
Caco-2 [7] = experiment: as above
Calu-3 [8] = experiment: as above
HepG2 [9] = experiment: cell viability relative to DMSO; higher = less toxic
Vero E6 [10] = experiment: as above
U2OS [11] = experiment: as above
Caco-2 [12] = experiment: as above
Calu-3 [13] = experiment: as above
Caco-2 [14] = experiment: relative viability EC50 (midpoint between 100% and the lowest measured viability); higher = less toxic

Structure (SMILES)	relative viability EC50 (HepG2 [1]) [µM]	relative viability EC50 (Vero E6 [2]) [µM]	relative viability EC50 (U2OS [3]) [µM]	drug sensitivity score (HepG2 [4])	drug sensitivity score (Vero E6 [5])	drug sensitivity score (U2OS [6])	drug sensitivity score (Caco-2 [7])	drug sensitivity score (Calu-3 [8])	cell viability (HepG2 [9]; 1 nM) [%]	cell viability (HepG2 [9]; 10 nM) [%]	cell viability (HepG2 [9]; 100 nM) [%]	cell viability (HepG2 [9]; 1000 nM) [%]	cell viability (HepG2 [9]; 10000 nM) [%]	cell viability (Vero E6 [10]; 1 nM) [%]	cell viability (Vero E6 [10]; 10 nM) [%]	cell viability (Vero E6 [10]; 100 nM) [%]	cell viability (Vero E6 [10]; 1000 nM) [%]	cell viability (Vero E6 [10]; 10000 nM) [%]	cell viability (U2OS [11]; 1 nM) [%]	cell viability (U2OS [11]; 10 nM) [%]	cell viability (U2OS [11]; 100 nM) [%]	cell viability (U2OS [11]; 1000 nM) [%]	cell viability (U2OS [11]; 10000 nM) [%]	cell viability (Caco-2 [12]; 1 nM) [%]	cell viability (Caco-2 [12]; 10 nM) [%]	cell viability (Caco-2 [12]; 100 nM) [%]	cell viability (Caco-2 [12]; 1000 nM) [%]	cell viability (Caco-2 [12]; 10000 nM) [%]	cell viability (Calu-3 [13]; 1 nM) [%]	cell viability (Calu-3 [13]; 10 nM) [%]	cell viability (Calu-3 [13]; 100 nM) [%]	cell viability (Calu-3 [13]; 1000 nM) [%]	cell viability (Calu-3 [13]; 10000 nM) [%]	relative viability EC50 (Caco-2 [14]) [µM]
Nc1c2ccccc2nc2ccccc12 [9-aminoacridine]	2.14	1.89	3.14	7.2	6.6	3.6	1.1	1.2	93.5	96.5	99.8	88.1	5.5	106	104	108	86.5	20.3	94.6	98	95	99.8	34.9	103	115	96.2	134	60.5	94.4	92.4	105	110	64.6	–
Cc1nnc(-c2ccc3occ(-c4ccc([S+](C)[O-])cc4)c3c2)o1 (stereo not given) [TCS2002]	> 10	> 10	> 10	0	0	0	0	–	94	97.2	99.3	93	112	96.1	95.9	99.1	90.6	101	102	103	101	99.3	98.5	103	96.7	98.5	108	108	–	–	–	–	–	> 10
CC(=O)O[C@]1(C(C)=O)CC[C@H]2[C@@H]3C=C(Cl)C4=CC(=O)CC[C@]4(C)[C@H]3CC[C@@]21C [chlormadinone-acetate]	> 10	> 10	> 10	0	0	0	0	–	98.1	98.8	100	92	112	93.2	96.9	91.9	92.5	90	97.2	92.7	96.1	90.6	95	101	106	115	98.8	103	–	–	–	–	–	> 10
O=C(N[C@H](Cc1ccccc1)C(=O)O)c1sc2cc(F)ccc2c1Cl [CU-CPT-4a]	> 10	> 10	> 10	0	0	0	0	–	107	106	92.7	90.1	100	107	103	102	99.1	104	97.2	97.1	94.4	98.2	96.7	99.3	102	91.1	93.5	102	–	–	–	–	–	> 10
CCCCCCCCCCCCCCCCCCO [octadecan-1-ol]	–	> 10	–	–	0	–	–	–	–	–	–	–	–	99.2	103	102	94.2	107	–	–	–	–	–	–	–	–	–	–	–	–	–	–	–	–
O=C(O[C@H]1C[N+]2(CCCOc3ccccc3)CCC1CC2)C(O)(c1cccs1)c1cccs1 [aclidinium]	> 10	> 10	> 10	0	0	0	0	–	93.5	98.9	91.8	101	92.9	103	95.5	101	96.6	98.7	98.4	95.9	97.1	97.2	99.1	105	87.8	99.6	94.3	104	–	–	–	–	–	> 10
CN(C)CCOC(=O)C(c1ccccc1)C1(O)CCCC1 (stereo not given) [cyclopentolate]	> 10	> 10	> 10	0	0	0	0	–	103	115	97.6	111	91.3	99.1	103	102	101	107	100	96.5	98.4	97.9	98.5	96.9	97.6	93	100	102	–	–	–	–	–	> 10
